Results published in the supplement of paper PMC10307832.

Columns and labels:
Test in all cases: relative viability (nuclei count vs DMSO), 5 days (fraction); higher = more cells survive
Veliparib + Trametinib = compound: C[C@]1(c2nc3c(C(N)=O)cccc3[nH]2)CCCN1 [Veliparib] + CC(=O)Nc1cccc(-n2c(=O)n(C3CC3)c(=O)c3c(Nc4ccc(I)cc4F)n(C)c(=O)c(C)c32)c1 [Trametinib] (partner 0.02 µM)
In short: (§1)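 Relative viability was taken as the ratio of nuclei in treated wells to nuclei in vehicle wells. Lung cancer cell lines in 1536-well plates received compounds by pin tool one day after seeding, either one drug alone or a fixed anchor-drug dose plus five library-drug doses (not always all listed) in √10 steps. Nuclei were counted on 4× images after 5 days of treatment, and values are medians of duplicate plates.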

[1] = compound: COC1=CC=C(C=C1)CN2C=CC3=C2C=C(C=C3)C(=O)NO + CCNC(=O)c1noc(-c2cc(C(C)C)c(O)cc2O)c1-c1ccc(CN2CCOCC2)cc1 [Luminespib] (partner 0.01 µM)
In short: as §1

Veliparib + Decitabine = compound: C[C@]1(c2nc3c(C(N)=O)cccc3[nH]2)CCCN1 [Veliparib] + Nc1ncn([C@H]2C[C@H](O)[C@@H](CO)O2)c(=O)n1 [Decitabine] (partner 2 µM)
In short: as §1

Veliparib + Linsitinib = compound: C[C@]1(c2nc3c(C(N)=O)cccc3[nH]2)CCCN1 [Veliparib] + C[C@]1(O)C[C@@H](c2nc(-c3ccc4ccc(-c5ccccc5)nc4c3)c3c(N)nccn32)C1 [Linsitinib] (partner 1 µM)
In short: as §1

| Cell Line | relative viability (Veliparib + Trametinib; first compound 0.02 µM) | relative viability (Veliparib + Trametinib; first compound 0.06325 µM) | relative viability (Veliparib + Trametinib; first compound 0.2 µM) | relative viability (Veliparib + Trametinib; first compound 0.6325 µM) | relative viability (Veliparib + Trametinib; first compound 2 µM) | relative viability ([1]; first compound 0.08 µM) | relative viability ([1]; first compound 0.253 µM) | relative viability ([1]; first compound 0.8 µM) | relative viability ([1]; first compound 2.53 µM) | relative viability ([1]; first compound 8 µM) | relative viability (Veliparib + Decitabine; first compound 0.02 µM) | relative viability (Veliparib + Decitabine; first compound 0.06325 µM) | relative viability (Veliparib + Decitabine; first compound 0.2 µM) | relative viability (Veliparib + Decitabine; first compound 0.6325 µM) | relative viability (Veliparib + Decitabine; first compound 2 µM) | relative viability (Veliparib + Linsitinib; first compound 0.02 µM) | relative viability (Veliparib + Linsitinib; first compound 0.06325 µM) | relative viability (Veliparib + Linsitinib; first compound 0.2 µM) | relative viability (Veliparib + Linsitinib; first compound 0.6325 µM) | relative viability (Veliparib + Linsitinib; first compound 2 µM) |
| --- | --- | --- | --- | --- | --- | --- | --- | --- | --- | --- | --- | --- | --- | --- | --- | --- | --- | --- | --- | --- |
| 201T | 0.762 | 0.719 | 0.699 | 0.746 | 0.738 | 1.05 | 1.13 | 1.07 | 1.05 | 0.987 | 0.886 | 0.844 | 0.795 | 0.795 | 0.785 | 1.08 | 1.06 | 0.995 | 1.02 | 1.01 |
| A549 |  |  |  |  |  |  |  |  |  |  | 0.202 | 0.137 | 0.0868 | 0.106 | 0.0789 | 0.62 | 0.576 | 0.591 | 0.626 | 0.586 |
| A-427 | 0.792 | 0.727 | 0.801 | 0.722 | 0.875 |  | 1.03 | 0.956 | 0.835 | 0.847 | 0.557 | 0.473 | 0.593 | 0.492 | 0.546 | 1.21 | 1.05 | 1.04 | 1.03 | 1.14 |
| ABC-1 |  |  |  |  |  |  | 0.844 | 0.391 | 0.435 | 0.391 |  |  | 0.82 | 1.07 | 1.06 |  | 0.767 | 0.807 | 0.759 | 0.892 |
| BEN | 1.11 | 1.11 | 1.06 | 1.01 | 1.08 | 0.427 | 0.286 | 0.23 | 0.354 | 0.218 | 0.572 | 0.581 | 0.613 | 0.565 | 0.624 | 0.803 | 0.875 | 1.15 | 0.928 | 0.946 |
| CAL-12T | 0.42 | 0.378 | 0.328 | 0.256 | 0.374 | 0.163 | 0.233 | 0.528 | 0.452 | 0.332 |  |  |  |  |  | 0.356 | 0.823 | 0.775 | 0.765 | 0.817 |
| COR-L23 | 0.47 | 0.609 | 0.501 | 0.539 | 0.613 | 0.536 | 0.754 | 0.716 | 0.747 | 0.603 | 0.406 | 0.315 | 0.255 | 0.287 | 0.289 | 1.1 | 0.886 | 0.9 | 0.656 | 0.816 |
| Calu-6 |  |  |  |  |  |  |  |  |  |  |  |  |  |  |  | 0.582 | 0.826 | 0.999 | 0.963 | 0.987 |
| ChaGo-K-1 | 0.673 | 0.842 | 0.923 | 0.857 | 0.905 |  | 0.69 | 0.494 | 0.601 | 0.409 | 0.446 | 0.453 | 0.411 | 0.439 | 0.422 |  |  |  |  |  |
| EBC-1 |  |  |  |  |  |  |  |  |  |  |  |  |  |  |  | 0.771 | 0.807 | 0.723 | 0.793 | 0.97 |
| HCC-78 | 0.84 | 0.701 | 0.869 | 0.617 | 0.669 |  |  |  |  |  | 0.637 | 0.589 | 0.603 | 0.517 | 0.491 | 0.612 | 0.53 | 0.592 | 0.36 | 0.541 |
| HCC-366 | 0.375 | 0.312 | 0.384 | 0.327 | 0.42 |  |  |  |  |  | 0.332 | 0.225 | 0.195 | 0.189 | 0.182 | 0.511 | 0.623 | 0.536 | 0.572 | 0.574 |
| IA-LM |  |  |  |  |  |  |  |  |  |  |  |  |  |  |  | 0.411 | 0.494 | 0.538 | 0.544 | 0.708 |
| NCI-H522 | 0.716 | 0.608 | 0.805 | 0.771 | 1.01 | 1.01 | 1.13 | 1.18 | 1.06 | 1.22 | 0.663 | 0.561 | 0.547 | 0.622 | 0.678 |  |  |  |  |  |
| NCI-H1299 |  |  |  |  |  |  |  |  |  |  |  |  |  |  |  | 0.905 | 0.931 | 0.921 | 0.898 | 0.988 |
| NCI-H1563 |  |  |  |  |  | 0.507 | 0.506 | 0.517 | 0.551 | 0.488 |  |  |  |  |  | 1.23 | 1.07 | 1.27 | 1.12 | 1.12 |
| NCI-H1623 |  |  |  |  |  | 0.578 | 0.761 | 0.576 | 0.471 | 0.392 |  |  |  |  |  |  |  |  |  |  |
| NCI-H1648 | 0.631 |  |  | 0.557 | 0.516 |  |  |  |  |  | 0.487 |  |  | 0.529 | 0.424 |  |  |  |  |  |
| NCI-H1650 | 0.335 | 0.374 | 0.58 | 0.497 | 0.508 | 0.194 | 0.189 | 0.194 | 0.213 | 0.203 | 0.256 | 0.326 | 0.433 | 0.43 | 0.308 |  |  |  |  |  |
| NCI-H1703 |  |  |  |  |  |  |  |  |  |  |  |  |  |  |  | 0.17 | 0.63 | 1.22 | 0.604 | 0.974 |
| NCI-H2170 | 0.872 | 1.02 | 1.01 | 0.901 | 0.935 | 0.566 | 0.748 | 0.549 | 0.833 | 0.589 | 0.405 | 0.436 | 0.378 | 0.389 | 0.381 |  |  |  |  |  |
| NCI-H2228 | 0.362 | 0.57 | 0.597 | 0.523 | 0.368 |  | 0.193 | 0.179 | 0.142 | 0.13 |  |  |  |  |  | 0.552 | 0.601 | 0.681 | 0.572 | 0.726 |
| NCI-H2342 | 0.76 | 0.81 | 0.701 | 0.742 | 0.736 | 0.697 | 0.629 | 0.762 | 0.786 | 0.738 | 0.729 | 0.758 | 0.679 | 0.718 | 0.725 |  |  |  |  |  |
| SW 900 |  | 0.75 | 0.938 | 0.621 | 0.828 | 0.174 | 0.234 | 0.206 | 0.217 | 0.165 |  | 0.377 | 0.396 | 0.427 | 0.388 |  |  |  |  |  |
